How the values were obtained:
Format in all cases: cell-based
[1] = test system: cardiac cells (H9C2); assay: Protective effect against cell death due to RSL3 (LDH release), H9C2; details: RSL3 0.5 μM, 24 hours
Experimental: (§1) To confirm cell death protection effects on cardiac cells, adrenal medullary cells, renal fibroblasts, retinal epithelial cells, lung epithelial cells, renal proximal tubular epithelial cells, hippocampal neurons and fibroblasts, each type of cells were seeded at 4×10^3 to 1.2×10^4 cells/well in a 96-well plate and cultured for 18 to 24 hours. The example compounds were diluted to have the final concentration of 0.001, 0.003, 0.01, 0.3, 1, 3, and 10 μM, respectively, and then added to different wells and cultured for 15 to 20 minutes. […] To confirm the cell death protection effect of the example compounds, the degree of extracellular secretion of lactate dehydrogenase (LDH) was measured using a cytotoxicity LDH assay kit [Dojindo; CK12]. Briefly, at the end of 24-hour treatment of each type of cells with RSL3, 70 μL of the supernatant was taken from the 96-well plate where the cells were cultured and transferred to a new 96-well plate. The assay buffer included in the kit was added at 70 μL/well (equal to that of the sample) and the plate was covered with foil to block light and allowed to react for 15 to 20 minutes at room temperature. While observing a color change of the sample, 35 µL/well of a stop solution was added, an absorbance at 490 nm was measured using an iD3 spectrophotometer, and an EC50 value was calculated.

[2] = test system: hippocampal neurons (HT-22); assay: Protective effect against cell death due to RSL3 (LDH release), HT-22; details: RSL3 0.3 μM, 24 hours
Experimental: as §1

[3] = test system: MLE-12 cells; assay: Inhibitory effect on intracellular lipid ROS (BODIPY 581/591 C11) under RSL3; details: 1 μM RSL3, 2 hours, compound 0.01, 0.1, 1 μM, FIG. 1
Experimental: To confirm the protective effect against intracellular lipid ROS in lung epithelial cells, MLE-12 cells were seeded at 2×10^5 cells/well in a 12-well plate and cultured for 18 to 24 hours. Example Compound 29 and Fer-1 were diluted to have the final concentration of 0.01, 0.1, and 1 μM and added to each well, and the cells were cultured for 10 minutes. Afterward, RSL3 was treated to have the final concentration of 1 μM, and the cells were cultured for 2 hours. To confirm the intracellular inhibitory effect on lipid ROS, the lipid peroxidation sensor BODIPY™ 581/591 C11 (Invitrogen™; D3861) was used. According to the manufacturer's protocol, the BODIPY™ 581/591 C11 was diluted in the culture broth to have the final concentration of […] and treated, and fluorescence staining was performed after a 30-minute reaction. The MILE-12 cells that were fluorescence-stained with BODIPY™ 581/591 C11 were detached from the 12-well plate using 0.25% trypsin-EDTA and transferred to a microtube. Fluorescence (Ex/Em=500-650 nm/510-665 nm) was measured using BD FACSLyric™, and the relative change compared to the control was calculated.

[4] = test system: MLE-12 cells; assay: Inhibitory effect on mito-ROS (MitoSOX) under RSL3; details: 1 μM RSL3, 2 hours, FIG. 4
Experimental: To confirm the protective effect against mito-ROS in lung epithelial cells, MILE-12 cells were seeded at 2×10^5 cells/well in a 12-well plate and cultured for 18 to 24 hours. Example Compound 29 and Fer-1 were diluted to have the final concentration of 0.01, 0.1, 1 and 10 M and added to each well, and the cells were cultured for 10 minutes. Afterward, RSL3 was treated to have the final concentration of 1 M, and the cells were cultured for 2 hours. To confirm the inhibitory effect on mito-ROS, the mitochondrial superoxide indicator MitoSOX™ (Invitrogen™; C6827) was used. According to the manufacturer's protocol, MitoSOX was diluted in the culture broth to have the final concentration of […], and fluorescence staining was performed after a 30-minute reaction. The MLE-12 cells fluorescence-strained with MitoSOX were detached from the 12-well plate using 0.25% trypsin-EDTA and transferred to a microtube, and fluorescence (Ex/Em=˜396 nm/610 nm) was measured using BD FACSLyric™, and the relative change compared to the control (RSL3-untreated group) was calculated.

[5] = test system: MLE-12 cells; assay: Inhibitory effect on intracellular accumulation of ferrous ions (FerroOrange) under RSL3; details: 1 μM RSL3, 8 hours, FIG. 5
Experimental: To confirm the inhibitory effect on intracellular accumulation of ferrous ions in lung epithelial cells, MILE-12 cells were seeded at 2×10^5 cells/well in a 12-well plate and cultured for 18 to 24 hours. Example Compound 29 and Fer-1 were diluted to have the final concentration of 0.01, 0.1, 1, and 10 μM and added to each well, and the cells were cultured for 10 minutes. Afterward, RSL3 was treated to have the final concentration of 1 M, and the cells were cultured for 8 hours. To confirm the inhibitory effect on intracellular accumulation of ferrous ions, FerroOrange (DOJINDO; F374) was used. According to the manufacturer's protocol, FerroOrange was diluted in the culture broth to have the final concentration of 1 M and added, and fluorescence staining was performed after a 30-minute reaction. The MLE-12 cells that were fluorescence-stained with FerroOrange were detached from the 12-well plate using 0.25% trypsin-EDTA and transferred to a microtube. Fluorescence (Ex/Em=580 nm/[…]) was measured using BD FACSLyric™, and the relative change compared to the control (RSL3-untreated group) was calculated.

[6] = test system: MLE-12 cells; assay: Inhibitory effect on mitochondrial accumulation of ferrous ions (Mito-FerroGreen) under RSL3; details: 1 μM RSL3, 8 hours, compound 0.01, 0.1, 1 μM, FIG. 6
Experimental: To confirm the inhibitory effect on the mitochondrial accumulation of ferrous ions in lung epithelial cells, MILE-12 cells were seeded at 2×10^5 cells/well in a 12-well plate and cultured for 18 to 24 hours. Example Compound 29 and Fer-1 were diluted to have the final concentration of 0.01, 0.1, and 1 μM and added to each well, and the cells were cultured for 10 minutes. Afterward, RSL3 was treated to have the final concentration of 1 μM, and the cells were cultured for 8 hours. To confirm the inhibitory effect on the mitochondrial accumulation of ferrous ions, Mito-FerroGreen (DOJINDO; M489) was used. According to the manufacturer's protocol, the Mito-FerroGreen was diluted in the culture broth to have the final concentration of 1 μM, and fluorescence staining was performed after a 30-minute reaction. The MLE-12 cells that were fluorescence-stained with Mito-FerroGreen were detached from the 12-well plate using 0.25% trypsin-EDTA and transferred to a microtube. Fluorescence (Ex/Em=505 nm/535 nm) was measured using, BD FACSLyric™, and the relative change compared to the control was calculated.

Structure (SMILES)	EC50 [1] [nM]	EC50 [2] [nM]	intracellular lipid ROS increased by RSL3 treatment [3]	mito-ROS increased by RSL3 treatment [4]	intracellular ferrous ions increased by RSL3 treatment [5]	mitochondrial ferrous ions increased by RSL3 treatment [6]	EC50 ([1]; Rattus norvegicus) [nM]	EC50 ([2]; Mus musculus) [nM]
CCOC(=O)c1ccc(NC2CCCCC2)c(N)c1 [Fer-1, ferrostatin-1, reference compound]	≤ 100	100 to 1000	significantly decreased at 0.01, 0.1, and 1 μM	significantly decreased at 0.01, 0.1, and 1 μM	significantly decreased at 0.1 and 1 μM	significantly reduced mitochondrial ferrous ion levels at 0.1 and 1 μM	–	–
OCCOCCOCc1cc(NC2CCOCC2)c2[nH]c(-c3ccccc3)cc2c1 [Example 29, 2-(2-((2-phenyl-7-((tetrahydro-2H-pyran-4-yl)amino)-1H-indol-5-yl)methoxy)ethoxy)ethan-1-ol]	–	–	significantly decreased at 0.01, 0.1, and 1 μM	significantly decreased at 0.01, 0.1, and 1 μM	significantly decreased at 0.1 and 1 μM	significantly reduced mitochondrial ferrous ion levels at 0.01, 0.1, and 1 M	≤ 100	≤ 100

Reference: patent US20260159481A1, “INDOLE DERIVATIVE WITH SUBSTITUENT AND PHARMACEUTICAL USE” (MITOIMMUNE THERAPEUTICS INC., priority 2023, published 2026)
